Reference: PMC11672724, “Antiparasitic Activities of Acyl Hydrazones from Cinnamaldehydes and Structurally Related Fragrances” (Antibiotics, 2024)

Experiments:
[1] = system: T. gondii RH strain tachyzoites; test: Toxoplasma gondii cells drug testing assay (infection index in Vero cells, 72 h); format: cell-based; details: for IC50: Toxoplasma gondii, Vero, IC50 ± SD, three independent experiments, 72 h; for SI = selectivity index (Vero/T. gondii): ratio IC50 Vero / IC50 T. gondii
Procedure: Cells of the Vero cell line (ATCC® CCL81™, Manassas, VA, USA) were used to cultivate T. gondii RH strain tachyzoites. Vero cells were maintained in complete RPMI 1640 medium (Thermo Fisher Scientific, Waltham, MA, USA). For cell cultivation, 96-well plates were prepared with 5 × 10^3 cells per well in 200 μL of RPMI 1640 medium, then incubated at 37 °C and 5% CO2 for 24 h. The medium was then removed, and cells were washed with phosphate-buffered saline (PBS). Next, RPMI 1640 medium with 2% FBS and parasites at a 5:1 parasite-to-cell ratio were added. After a 5 h incubation at 37 °C and 5% CO2, cells were washed with PBS and subjected to further treatments. […] After incubation at 37 °C and 5% CO2 for 72 h, cells were washed with PBS, fixed in 10% formalin, and stained with 1% toluidine blue. An inverted photomicroscope was used to assess cell infection and to determine the infection index (number of infected cells out of 200 counted cells). The inhibition percentage was calculated as follows:Inhibition (%) = [(I Control − I Experimental)/I Control] × 100 where “I Control” represents the infection index of untreated cells, and “I Experimental” represents the infection index of cells treated with test compounds. The effects of the compounds on parasite growth are expressed as IC50 values derived from three independent experiments.

Vero monkey kidney cells = test: Vero cell cytotoxicity (MTT assay, 72 h); format: cell-based; details: Primates, IC50 ± SD
Procedure: To assess the test compounds’ cytotoxicity, MTT assays were performed. The Vero cells and macrophages were cultivated for 24 h at 37 °C in RPMI 1640 media with 10% FBS and 5% CO2 in 96-well plates (5 × 10^3 cells/well/200 μL). Following a washing step with PBS, the cells were treated with test compounds at different concentrations (50, 25, 12.5, 6.25, 3.13, 1.65, and 0.75 μg /mL) in 10% FBS medium for 72 h. Negative control cells were only given media with 2% FBS and 1% DMSO. The cells were cultured for 4 h after the supernatant was disposed of, and 50 μL of RPMI 1640 media containing 14 μL MTT (5 mg/mL) was added. After removing the supernatant once again, 150 μL of DMSO was added. IC50 values were determined from three independent experiments.

L. major promastigotes = test: Leishmania major promastigote assay (MTT, 72 h); format: cell-based
Procedure: (§1) Promastigotes of L. major were obtained from a patient (February 2016) and cultured at 26 °C in Schneider’s Drosophila medium (Invitrogen, Carlsbad, CA, USA) supplemented with 10% heat-inactivated fetal bovine serum (FBS, Invitrogen, USA) and antibiotics, with weekly transfers in a tissue culture flask. Promastigotes were cryopreserved in liquid nitrogen at a concentration of 3 × 10^6 parasites/mL. Virulent L. major parasites were maintained by serial passage in female BALB/c mice, achieved by injecting hind footpads with 1 × 10^6 stationary-phase promastigotes. Amastigotes were isolated from the mice after 8 weeks, then converted to promastigotes by cultivation at 26 °C in Schneider’s medium containing 10% FBS and antibiotics. Amastigote-derived promastigotes, which underwent several in vitro passages, were used for the infection studies. BALB/c mice (both male and female) were provided by the Pharmaceutical College, King Saud University, Kingdom of Saudi Arabia, and housed in specific pathogen-free conditions following the ethical guidelines of the Qassim University Research Ethics Committee (permission number: 20-03-20).
L. major promastigotes in the logarithmic phase were cultured in phenol-red-free RPMI 1640 medium (Invitrogen, USA) with 10% FBS in 96-well plates at 10^6 cells/mL (200 μL/well, counted with a hemocytometer). Test compounds were added at final concentrations of 50, 25, 12.5, 6.25, 3.13, 1.65, and 0.75 μg/mL. […] After incubation at 26 °C for 72 h, viable promastigotes were counted using an MTT colorimetric assay. The formed formazan was dissolved in a detergent and the absorbance was measured at 570 nm using an ELISA reader. IC50 values were derived from three independent experiments.

macrophages = test: Macrophage cytotoxicity (MTT assay, 72 h); format: cell-based, BALB/c mice; details: Mus musculus, IC50 ± SD
Procedure: Plates were incubated for 24 h at 37 °C in a 5% CO2 environment to allow infection and amastigote differentiation. Infected cells were then washed with PBS and overlaid with RPMI 1640 medium containing the test compounds at the same concentrations as applied for the experiments with promastigotes, followed by incubation at 37 °C and 5% CO2 for 72 h. […] The percentage of infected macrophages was determined microscopically after fixation, Giemsa staining, and medium removal. IC50 values were calculated from three independent experiments. To assess the test compounds’ cytotoxicity, MTT assays were performed. […] Negative control cells were only given media with 2% FBS and 1% DMSO. The cells were cultured for 4 h after the supernatant was disposed of, and 50 μL of RPMI 1640 media containing 14 μL MTT (5 mg/mL) was added. After removing the supernatant once again, 150 μL of DMSO was added. IC50 values were determined from three independent experiments.

L. major amastigotes = test: Leishmania major amastigotes in peritoneal macrophages (percentage of infected macrophages, 72 h); format: cell-based; details: Macrophage, IC50 ± SD
Procedure: as §1
Activity against amastigotes in macrophages was evaluated using peritoneal macrophages, which were harvested from 6–8-week-old BALB/c mice of different sex, and plated at 5 × 10^4 cells/well in 96-well plates containing phenol-red-free RPMI 1640 medium with 10% FBS. After 4 h at 37 °C and 5% CO2 to promote adhesion, cells were washed with PBS, and 200 μL of an L. major promastigote solution (10 promastigotes per macrophage) was added. Plates were incubated for 24 h at 37 °C in a 5% CO2 environment to allow infection and amastigote differentiation. Infected cells were then washed with PBS and overlaid with RPMI 1640 medium containing the test compounds at the same concentrations as applied for the experiments with promastigotes, followed by incubation at 37 °C and 5% CO2 for 72 h. […] IC50 values were calculated from three independent experiments.

[2] = Leishmania major, 72 h, IC50 ± SD, MTT
[3] = ratio IC50 macrophages / IC50 promastigotes
[4] = verbal statement in text on the L. major experiments

| SMILES | IC50 (L. major promastigotes; [2]) | IC50 (L. major amastigotes) | IC50 (L. major promastigotes; IC50 ± SD, MTT, 72 h) | IC50 [1] | SI = selectivity index (Vero/T. gondii) [1] | IC50 (Vero monkey kidney cells) | SI (promastigotes) = selectivity index (macrophages/L. major promastigotes) (L. major promastigotes; [3]) | IC50 (macrophages) | activity against T. gondii (in words) [1] | IC50 (L. major promastigotes; Leishmania major; IC50 ± SD, MTT, 72 h) | activity against L. major promastigotes (in words) (L. major promastigotes; [4]) |
| --- | --- | --- | --- | --- | --- | --- | --- | --- | --- | --- | --- |
| C(=C\c1ccccc1)/C=N/Nc1ccccc1 [CPH, Cinnamaldehyde phenyl hydrazone, reference compound] | 83.7 ± 13.6 µM |  |  | 12.9 ± 2.1 µM | 1.8 | 23.6 ± 3.9 µM | 0.94 | 78.4 ± 12.2 µM |  |  |  |
| O=C/C=C/c1ccccc1 [Cinnamaldehyde, (2E)-3-phenylprop-2-enal] |  | > 151 µM |  | > 151 µM |  | > 151 µM |  | > 151 µM | inactive | > 151 µM |  |
| O=C(N/N=C/C=C/c1ccccc1)c1cc2ccccc2cc1O [Compound 2a] | 16.8 ± 2.8 µM | > 41.7 µM |  | 0.63 ± 0.08 µM | 11.5 | 7.3 ± 0.9 µM | >2.5 | > 41.7 µM |  |  | moderate activity |
| CN(C)c1ccc(/C=C/C=N/NC(=O)c2cc3ccccc3cc2O)cc1 [Compound 2b] | > 36.7 µM | > 36.7 µM |  | 23.4 ± 3.9 µM | 1.0 | 24.2 ± 2.7 µM |  | > 36.7 µM |  |  |  |
| O=C(N/N=C/C=C/c1ccccc1)c1ccccc1O [Compound 2c] | 47.7 ± 6.5 µM | > 49.6 µM |  | 1.1 ± 0.2 µM | 17.3 | 19.5 ± 2.6 µM | 0.91 | 43.6 ± 8.6 µM |  |  |  |
| CN(C)c1ccc(/C=C/C=N/NC(=O)c2ccccc2O)cc1 [Compound 2d, (E)-N′-(4-Dimethylaminocinnamylidene)-2-hydroxybenzoylhydrazide] | > 42.7 µM | > 42.7 µM |  | 3.9 ± 0.5 µM | 5.7 | 22 ± 3 µM |  | > 42.7 µM | reasonable activity |  |  |
| O=C(N/N=C/C=C/c1ccccc1)c1ccccc1F [Compound 2g] | > 74.6 µM | > 74.6 µM |  | 69.4 ± 10 µM |  | > 74.6 µM |  | > 74.6 µM |  |  |  |
| O=C(N/N=C/C=C/c1ccccc1)c1ccncc1 [Compound 2l] | 51.3 ± 9.3 µM | > 52.5 µM |  | 52.1 ± 8.3 µM | 0.99 | 51.3 ± 7.8 µM | >1.0 | > 52.5 µM |  |  |  |
| CN(C)c1ccc(/C=C/C=N/NC(=O)c2ccncc2)cc1 [Compound 2m] | > 44.8 µM | > 44.8 µM |  | 31.6 ± 6.2 µM | 1.3 | 41.5 ± 7.2 µM |  | > 44.8 µM |  |  |  |
| CC(C)c1cccc(C(C)CC=O)c1 (stereo not drawn) [Florhydral^TM, 3-(3-isopropylphenyl)butanal, reference compound] | > 105 µM | > 105 µM |  | > 105 µM |  | 99.1 ± 18.4 µM |  | > 105 µM |  |  |  |
| CC(C)Cc1ccc(CC(C)C=O)cc1 (stereo not drawn) [Silvial^TM, 2-methyl-3-[4-(2-methylpropyl)phenyl]propanal, reference compound] | > 97.9 µM | > 97.9 µM |  | 90.1 ± 15.2 µM |  | > 97.9 µM |  | > 97.9 µM |  |  |  |

The next lines start with results.

| IC50 (L. major promastigotes; [2]) | IC50 (L. major amastigotes) | IC50 (L. major promastigotes; IC50 ± SD, MTT, 72 h) | SMILES | IC50 [1] | SI = selectivity index (Vero/T. gondii) [1] | IC50 (Vero monkey kidney cells) | SI (promastigotes) = selectivity index (macrophages/L. major promastigotes) (L. major promastigotes; [3]) | IC50 (macrophages) | activity against T. gondii (in words) [1] | IC50 (L. major promastigotes; Leishmania major; IC50 ± SD, MTT, 72 h) | activity against L. major promastigotes (in words) (L. major promastigotes; [4]) |
| --- | --- | --- | --- | --- | --- | --- | --- | --- | --- | --- | --- |
| > 51.5 µM | > 51.5 µM |  | CC(C)Cc1ccc(CC(C)/C=N/NC(=O)c2cc3ccccc3cc2O)cc1 (stereo not drawn) [Compound 3a, N′-2-Methyl-3-[4-(2-methylpropyl)phenyl]propanylidene-3-hydroxy-2-naphthoic hydrazide] | 46.9 ± 8.4 µM | 0.88 | 41.3 ± 6.9 µM |  | > 51.5 µM |  |  |  |
| > 58.8 µM | > 58.8 µM |  | CC(C)Cc1ccc(CC(C)/C=N/NC(=O)c2cccc(F)c2)cc1 (stereo not drawn) [Compound 3e, N′-2-Methyl-3-[4-(2-methylpropyl)phenyl]propanylidene-3-fluorobenzoylhydrazide] | 45.3 ± 6.9 µM | 1.2 | 53.5 ± 8.5 µM |  | > 58.8 µM |  |  |  |
| < 10 µM | > 53.4 µM | 9.6 ± 2.4 µM | CC(C)c1cccc(C(C)CC=NNC(=O)c2cc3ccccc3cc2O)c1 (stereo not drawn) [Compound 4a, N′-3-(3-Isopropylphenyl)butanylidene-3-hydroxy-2-naphthoic hydrazide] | 14.4 ± 2.1 µM | 2.8 | 39.6 ± 4.8 µM |  | > 53.4 µM |  |  | moderate activity |
| 39.5 ± 5.9 µM | 45.4 ± 7.9 µM |  | CC(C)c1cccc(C(C)C/C=N/NC(=O)c2ccccc2O)c1 (stereo not drawn) [Compound 4b, N′-3-(3-Isopropylphenyl)butanylidene-2-hydroxybenzoylhydrazide] | 21 ± 3.5 µM | 0.92 | 19.2 ± 2.2 µM | 1.3 | 50.3 ± 9.4 µM |  |  |  |
| > 61.3 µM | > 61.3 µM |  | CC(C)c1cccc(C(C)C/C=N/NC(=O)c2ccccc2F)c1 (stereo not drawn) [Compound 4d, N′-3-(3-Isopropylphenyl)butanylidene-2-fluorobenzoylhydrazide] | > 61.3 µM |  | > 61.3 µM |  | > 61.3 µM |  |  |  |
| < 30 µM | > 58.3 µM | 27.9 ± 4.2 µM | CC(C)c1cccc(C(C)C/C=N/NC(=O)c2cccc(Cl)c2)c1 (stereo not drawn) [Compound 4f, N′-3-(3-Isopropylphenyl)butanylidene-3-chlorobenzoylhydrazide] | 47.5 ± 7.3 µM | 1.2 | 57.9 ± 11 µM | >2.1 | > 58.3 µM |  |  |  |
| 54.6 ± 9 µM | > 64.6 µM |  | CC(C)c1cccc(C(C)C/C=N/NC(=O)c2ccncc2)c1 (stereo not drawn) [Compound 4g, N′-3-(3-Isopropylphenyl)butanylidene-isonicotinoylhydrazide] | > 64.6 µM |  | > 64.6 µM | >1.2 | > 64.6 µM |  |  |  |
